Assay results taken from PubChem BioAssay (NCI).
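Tested at 5 concentrations; 48 h exposure; 96-well plates; endpoints linearly interpolated, else capped at highest concentration. TGI denotes the concentration required for complete inhibition of growth.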

Experiments:
Test in all cases: inhibition of tumour cell growth, NCI panel, 48 h
[1] = system: ACHN renal
[2] = system: BT-549 breast
[3] = system: CAKI-1 renal
[4] = system: HCC-2998 colon
[5] = system: HL-60(TB) leukemia
[6] = system: IGROV1 ovarian
[7] = system: K-562 leukemia
[8] = system: M14 melanoma
[9] = system: MDA-MB-435
[10] = system: MDA-N
[11] = system: MOLT-4 leukemia
[12] = system: NCI/ADR-RES ovarian
[13] = system: PC-3 prostate
[14] = system: SF-268 CNS
[15] = system: SF-539 CNS
[16] = system: SK-MEL-2 melanoma
[17] = system: SK-MEL-28 melanoma
[18] = system: SR leukemia
[19] = system: HOP-92 NSCLC

SMILES	TGI [1]	TGI [2]	TGI [3]	TGI [4]	TGI [5]	TGI [6]	TGI [7]	TGI [8]	TGI [9]	TGI [10]	TGI [11]	TGI [12]	TGI [13]	TGI [14]	TGI [15]	TGI [16]	TGI [17]	TGI [18]	TGI [19]
COc1ccc(N=Nc2c(C)c(C#N)c(=S)n(C3OC(CO)C(O)C(O)C3O)c2-c2ccccc2)cc1 (stereo not drawn)	> 100 µM	97.6 µM	73.3 µM	> 100 µM	> 100 µM	> 100 µM	> 100 µM	76.8 µM	73.9 µM	> 100 µM	46.5 µM	> 100 µM	66.3 µM	> 100 µM	> 100 µM	89.7 µM	63.6 µM	> 100 µM	
C=CCn1c(-c2ccc([N+](=O)[O-])cc2)cs/c1=N\C(P(=O)(O)O)P(=O)(O)O	> 100 µM	> 100 µM	> 100 µM	> 100 µM	90.6 µM	> 100 µM	> 100 µM	> 100 µM	> 100 µM	> 100 µM	> 100 µM	> 100 µM	> 100 µM	> 100 µM	> 100 µM		> 100 µM	> 100 µM	> 100 µM
O=c1c2cc(I)ccc2nc(SCc2nncs2)n1Cc1ccccc1	> 100 µM	> 100 µM		> 100 µM	> 100 µM	48.7 µM	> 100 µM	> 100 µM	> 100 µM	> 100 µM	> 100 µM	> 100 µM	> 100 µM	> 100 µM	84.1 µM	85.5 µM	> 100 µM	> 100 µM	35.1 µM
CC(O)(Cc1ccccc1C#N)Cc1ccccc1C#N	> 100 µM	> 100 µM	> 100 µM	> 100 µM	97.7 µM	> 100 µM	> 100 µM	> 100 µM	> 100 µM	> 100 µM	> 100 µM	> 100 µM	> 100 µM	> 100 µM	> 100 µM	> 100 µM	> 100 µM	> 100 µM	> 100 µM
Cc1cc(S(=O)(=O)Nc2n[nH]c(Nc3ccc(Cl)cc3)n2)c(S)cc1Cl	> 100 µM	> 100 µM	> 100 µM	> 100 µM	> 100 µM	> 100 µM	> 100 µM	> 100 µM	> 100 µM	> 100 µM	> 100 µM	> 100 µM	> 100 µM	> 100 µM	> 100 µM	> 100 µM	> 100 µM	> 100 µM	> 100 µM
CC(C)C1C(=O)N(c2c(F)c(F)c(F)c(F)c2F)C(=S)N1CCS(=O)c1ccccc1 (stereo not drawn)	37.1 µM	30.9 µM	9.86 µM	21.8 µM	19.2 µM	34.4 µM	39.6 µM	30.6 µM	32.3 µM	32.4 µM	49.7 µM	40.8 µM	29.3 µM	32.6 µM	36.2 µM	32.8 µM	30.8 µM	16.2 µM	34.8 µM
O=C(O)CCCC(=O)Nn1c(Cc2ccc(Cl)cc2)n[nH]c1=O	> 100 µM	> 100 µM	> 100 µM		> 100 µM	> 100 µM	> 100 µM	> 100 µM	> 100 µM	> 100 µM	> 100 µM	> 100 µM	> 100 µM	> 100 µM		> 100 µM	> 100 µM	> 100 µM	> 100 µM
NC(Cc1ccc(OCc2ccccc2)cn1)C(=O)O (stereo not drawn)	> 100 µM	> 100 µM	> 100 µM	> 100 µM	> 100 µM	> 100 µM	> 100 µM		> 100 µM	> 100 µM	> 100 µM	> 100 µM	> 100 µM	> 100 µM	> 100 µM		> 100 µM	> 100 µM	
O=C1CSC(/C=C/c2ccccc2)N1c1nc2cc3sc(N4C(=O)CSC4/C=C/c4ccccc4)nc3cc2s1 (stereo not drawn)	> 100 µM	> 100 µM	> 100 µM	> 100 µM	> 100 µM	> 100 µM	> 100 µM	> 100 µM	> 100 µM	> 100 µM	> 100 µM	> 100 µM	> 100 µM	> 100 µM	9.61 µM	> 100 µM	> 100 µM	> 83.7 µM	> 100 µM
Nc1ccc2c(O)cc(=O)[nH]c2n1	> 100 µM	> 100 µM	> 100 µM		> 100 µM	> 100 µM	> 100 µM	> 100 µM	> 100 µM	> 100 µM	> 100 µM	> 100 µM	> 100 µM	> 100 µM	> 100 µM	> 100 µM	> 100 µM	> 100 µM	> 100 µM
O=c1[nH]c2nnc(COc3ccc(Cl)cc3Cl)n2nc1Cc1ccccc1	> 100 µM	> 100 µM	> 100 µM		> 100 µM	76.6 µM	> 100 µM	> 100 µM	> 100 µM	> 100 µM	> 100 µM	> 100 µM	> 100 µM	> 100 µM	39.8 µM	> 100 µM	> 100 µM	> 100 µM	69.5 µM
COc1ccc(C2N(c3ccc(F)cc3)C(=O)N3C(c4ccc(OC)cc4)N(c4ccc(F)cc4)C(=O)N23)cc1 (stereo not drawn)	> 100 µM	> 100 µM	> 100 µM		> 100 µM	> 100 µM		> 100 µM	> 100 µM	> 100 µM		> 100 µM	> 100 µM	> 100 µM	> 100 µM	> 100 µM	> 100 µM	> 100 µM	> 100 µM
O=c1ccn(CC2(CO)CCC2)c(=O)[nH]1	> 100 µM	> 100 µM	> 100 µM	> 100 µM	> 100 µM	> 100 µM	> 100 µM		> 100 µM	> 100 µM	> 100 µM	> 100 µM	> 100 µM	> 100 µM	> 100 µM	> 100 µM	> 100 µM	> 100 µM	> 100 µM
CC(=O)C(=[N+]=[N-])C(=O)N1CCOC1=O	> 10 µM	> 10 µM	> 10 µM	> 10 µM	> 10 µM	> 10 µM	> 10 µM	> 10 µM	> 10 µM	> 10 µM	> 10 µM	> 10 µM	> 10 µM	> 10 µM	> 10 µM	> 10 µM	> 10 µM	> 10 µM	
COC(=O)C(N)CCCC(N)C(=O)NC(C)C(=O)NC(CCC(=O)NCCNCCNc1c2ccccc2nc2cccc([N+](=O)[O-])c12)C(N)=O (stereo not drawn)	> 61.1 µM	38.5 µM	> 100 µM	34.2 µM		> 100 µM	20.7 µM	26.2 µM	20.1 µM	28.1 µM	> 100 µM	> 100 µM	29.5 µM	10.7 µM	14.2 µM	30.6 µM	31.1 µM	> 100 µM	23.8 µM
Oc1ccc(O)c(CNc2ccc(C(O)C(F)(F)F)cc2)c1 (stereo not drawn)	26.6 µM	28.2 µM	29.7 µM		16.4 µM	30.1 µM	> 100 µM	35.5 µM	47.4 µM	25.9 µM	29.7 µM	> 100 µM	> 100 µM	66 µM	21.1 µM	88 µM	77.3 µM	83.6 µM	27.7 µM
O=c1[nH]c(=O)n(COCc2ccccc2)c2ccsc12	> 100 µM	> 100 µM	> 100 µM	> 100 µM		> 100 µM	> 100 µM	> 100 µM	> 100 µM	> 100 µM	> 100 µM	> 100 µM	> 100 µM	> 100 µM	> 100 µM	> 100 µM	> 100 µM	> 100 µM	> 100 µM
C[C@@H](c1ccccc1)n1c(N)c(-c2ccccn2)c2ccc([N+](=O)[O-])cc2c1=O	> 100 µM	> 100 µM	> 100 µM	> 100 µM	> 100 µM				> 100 µM	> 100 µM		> 100 µM	> 100 µM	> 100 µM		> 100 µM	> 100 µM	> 100 µM	> 100 µM
CC(=O)O[C@H]1C(=O)[C@@]2(C)[C@H]([C@H](OC(=O)c3cccc([N+](=O)[O-])c3)[C@]3(O)C[C@H](OC(=O)[C@H](O)[C@@H](NC(=O)c4ccccc4)c4ccccc4)C(C)=C1C3(C)C)[C@]1(OC(C)=O)CO[C@@H]1C[C@@H]2O	> 25 µM	> 25 µM	> 25 µM	> 25 µM	< 0.0025 µM	> 25 µM		8.52 µM	0.0114 µM	0.0115 µM	> 20.3 µM	> 25 µM	> 25 µM	> 25 µM	0.00254 µM	> 25 µM	> 25 µM	0.113 µM	> 25 µM
O=C(NC1(c2cc3ccccc3s2)CCCCC1)C1CCC1	> 100 µM	> 100 µM	> 100 µM	> 100 µM	> 100 µM	> 100 µM	> 100 µM	> 100 µM	> 100 µM	> 100 µM	> 100 µM	> 100 µM	> 100 µM		> 100 µM	> 100 µM	> 100 µM	> 100 µM	> 100 µM
CC(C)=CCC[C@@H](C)/C=C/C=C(\C)C(=O)CC[C@@H]1CC[N@+]2(C)CCCC[C@H]12	> 100 µM	> 100 µM	> 100 µM	> 100 µM		> 100 µM	> 100 µM	> 100 µM	> 100 µM	> 100 µM	> 100 µM	> 100 µM	> 100 µM	> 100 µM	> 100 µM	> 100 µM	> 100 µM	> 100 µM	> 100 µM
Cc1nc(N)c(N2CCN(C(=O)O)CC2)c(=O)[nH]1	> 100 µM	> 100 µM		> 100 µM	> 100 µM		> 100 µM	> 100 µM	> 100 µM	> 100 µM	> 100 µM	> 100 µM	> 100 µM	> 100 µM	> 100 µM	> 100 µM	> 100 µM	> 100 µM	> 100 µM
CC#CC(O)(C(=O)OCCCN(C)C)C1CCCCC1 (stereo not drawn)	> 100 µM	> 100 µM		> 100 µM	> 100 µM	> 100 µM	> 100 µM	> 100 µM	> 100 µM	> 100 µM	> 100 µM	> 100 µM	> 100 µM	> 100 µM	> 100 µM	> 100 µM	> 100 µM	> 100 µM	> 100 µM
Cc1cc2c(c(C=Nc3ccccc3O)c1)OC1(C=C2)Oc2ccccc2C(=O)N1C (stereo not drawn)	40.3 µM	47.8 µM	42.2 µM	29.2 µM	> 100 µM	58.5 µM	62.2 µM	57.5 µM	82 µM	77.3 µM	51 µM	37.5 µM	48.7 µM	36.3 µM		50 µM	47.5 µM	48 µM	32.2 µM
N#Cc1cc(C#N)c(N)nc1N	> 100 µM	> 100 µM	> 100 µM	> 100 µM	> 100 µM	> 100 µM	> 100 µM	> 100 µM	> 100 µM	> 100 µM	> 100 µM	> 100 µM	> 100 µM		> 100 µM	> 100 µM		> 100 µM	> 100 µM
